Results on one compound are retold here after patent US20180369203A1, “METHODS OF TREATING CANCER BY ADMINISTERING A MEK INHIBITOR IN COMBINATION WITH A PROTEASOME INHIBITOR” (The Jackson Laboratory, priority 2015, published 2018).

One assay has as its system polyQ79-expressing cells. Put plainly: ThT and CR staining of polyQ79-expressing cells (flow cytometry). The conditions noted are these: HEK293T; 20 nM AZD6244, 100 nM Bortezomib, or both. Type of assay: cell-based. How it is done:
(§1) FIGS. 5A-Y show MEK and proteasome inhibition provoke protein aggregation and amyloidogenesis. (A-B) WM115 cells treated with 20 nM AZD6244, 100 nM Bortezomib, or both for 24 hr were stained with Lys48-specific ubiquitin antibodies. Arrowheads mark ubiquitin-positive aggregates. Scale bar: 10 μm. Amounts of aggregates per cell were quantitated using ImageJ (median, n≥100, ANOVA). (C-F) Following transfection with polyQ79 plasmids alone or with both polyQ79 and HSF1^S326D plasmids for one day, HEK293T cells were treated with inhibitors as described in (A-B). Cells were either analyzed for aggregate size or stained with 10 μM ThT. (G) Treated tumor cell lines were stained with 10 μM ThT. Geometric means were used to calculate fold changes in ThT fluorescence intensity and the log 2(FC) values were presented as a heat map. (H) HEK293T cells were transfected with LacZ or polyQ79 plasmid. Following treatments, AOs were quantitated by ELISA using A11 antibodies (mean±SD, n=3, ANOVA). (I) Intrinsic AOs were detected in human tumor cell lines (mean±SD, n=3, ANOVA). […] Amyloids were quantitated by ELISA (mean±SD, n=3, Student's t-test). […] AF formation was monitored by ThT binding (mean±SD, n=3, ANOVA). […] Amyloids were quantitated (mean±SD, n=3, Student's t-test). […] Viable cells were quantitated by CellTiter® blue (mean±SD, n=6, Student's t-test). […] Viable cells were quantitated (mean±SD, n=6, ANOVA). […]

In the next assay the test system is polyQ79. Put plainly: polyQ79 aggregate size in HEK293T cells (Coulter counter). In kind it is cell-based. The note with it: 20 nM AZD6244, 100 nM Bortezomib, or both. As to the method: as §1

Each structure is given as a SMILES string.

Take `CC(C)C[C@H](NC(=O)[C@H](Cc1ccccc1)NC(=O)c1cnccn1)B(O)O` [Bortezomib, bortezomib]: the “ThT and CR staining of polyQ79-expressing cells” value with polyQ79-expressing cells was “further intensified”. In the assay with polyQ79, the polyQ79 aggregate size result is given as “enhanced”.
